The supplement of paper PMC10307832

Key:
Experiment in all cases: relative viability (nuclei count vs DMSO), 5 days (fraction); higher = more cells survive
[1] = compound: C1CNCCC1C2=CC(=NN2)C3=CC=NC=C3 + CC1(C)CCC(c2ccc(Cl)cc2)=C(CN2CCN(c3ccc(C(=O)NS(=O)(=O)c4ccc(N[C@H](CCN5CCOCC5)CSc5ccccc5)c(S(=O)(=O)C(F)(F)F)c4)cc3)CC2)C1 [Navitoclax] (partner 0.5 µM)
Outline: (§1)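 Lung cancer cell lines were pin-tool dosed in 1536-well plates on the day after seeding, with either a lone drug or a fixed anchor-drug dose plus five library-drug doses (not always all listed) in √10 steps. Nuclei were counted on 4× images after 5 days. Relative viability is the ratio of treated-well to vehicle-well nuclei counts, with each value a median of duplicate plates.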

[2] = compound: C1CNCCC1C2=CC(=NN2)C3=CC=NC=C3 + CS(=O)(=O)CCNCc1ccc(-c2ccc3ncnc(Nc4ccc(OCc5cccc(F)c5)c(Cl)c4)c3c2)o1 [Lapatinib] (partner 2 µM)
Outline: as §1

[3] = compound: C[C@@H](N)c1ccc(C(=O)Nc2ccnc3[nH]ccc23)cc1 + CC(C)C[C@H](NC(=O)[C@H](Cc1ccccc1)NC(=O)c1cnccn1)B(O)O [Bortezomib] (partner 0.002 µM)
Outline: as §1

[4] = compound: C[C@@H](N)c1ccc(C(=O)Nc2ccnc3[nH]ccc23)cc1 + C[C@]1(O)C[C@@H](c2nc(-c3ccc4ccc(-c5ccccc5)nc4c3)c3c(N)nccn32)C1 [Linsitinib] (partner 1 µM)
Outline: as §1

Cell Line | relative viability ([1]; first compound 0.08 µM) | relative viability ([1]; first compound 0.8 µM) | relative viability ([1]; first compound 2.53 µM) | relative viability ([1]; first compound 8 µM) | relative viability ([2]; first compound 0.08 µM) | relative viability ([2]; first compound 0.8 µM) | relative viability ([2]; first compound 2.53 µM) | relative viability ([2]; first compound 8 µM) | relative viability ([3]; first compound 0.04 µM) | relative viability ([3]; first compound 0.1265 µM) | relative viability ([3]; first compound 0.4 µM) | relative viability ([3]; first compound 1.265 µM) | relative viability ([3]; first compound 4 µM) | relative viability ([4]; first compound 0.04 µM) | relative viability ([4]; first compound 0.1265 µM) | relative viability ([4]; first compound 0.4 µM) | relative viability ([4]; first compound 1.265 µM) | relative viability ([4]; first compound 4 µM)
NCI-H1299 | 1.09 | 1.04 | 1.02 | 1.09 | 0.96 | 0.948 | 1 | 0.891 | 1.02 | 0.998 | 0.958 | 0.938 | 0.827 | 0.945 | 0.977 | 0.939 | 0.956 | 0.85
NCI-H3122 | 0.98 | 1.05 | 0.979 | 1.03 | 0.972 | 1.03 | 1.04 | 1.04 | 1.05 | 0.979 | 1.04 | 1 | 0.912 | 1.03 | 0.985 | 0.964 | 1.02 | 1.03
NCI-H1395 | 1.15 | 0.976 | 1.23 | 1.13 | 0.886 | 0.876 | 0.987 | 1.18 |  |  |  |  |  | 1.05 | 1.14 | 1.24 |  | 0.878
NCI-H2009 | 1.16 | 1.18 | 1.17 | 1.14 | 0.998 | 1.01 | 1.07 | 0.888 | 0.89 | 0.928 | 0.969 | 0.354 | 0.827 | 1.21 | 1.06 | 1.01 | 0.966 | 0.709
NCI-H1651 | 0.897 | 1.07 | 0.963 | 1.16 | 0.673 | 0.863 | 0.724 | 0.949 | 1.02 | 0.998 | 0.997 | 0.795 | 0.934 | 1.12 | 0.932 | 0.987 | 1.13 | 0.994
HARA | 1.13 | 1.14 | 1.17 | 1.2 | 0.755 | 0.874 | 0.736 | 0.701 | 1.24 | 1.26 | 1.22 | 1.17 | 1.14 | 1.09 | 1.06 | 1.15 | 0.996 | 0.521
NCI-H1944 | 0.989 | 0.937 | 1.09 | 1 | 0.76 | 0.775 | 0.819 | 0.801 |  |  |  |  |  | 1.28 | 1.16 | 1.17 |  | 0.835
NCI-H2347 | 0.784 | 0.556 | 0.855 | 0.823 | 0.956 | 0.735 | 0.977 | 0.996 | 0.955 | 1.02 | 1.08 |  | 1.09 | 0.937 | 0.868 | 1.02 | 1.02 | 0.8
201T | 1.25 | 1.15 | 1.2 | 1.18 | 0.975 | 0.978 | 0.994 | 0.986 | 1.09 | 1.08 | 1.11 | 1.17 | 1.25 | 1.14 | 1.02 | 1.07 | 1.11 | 1.16
